Data reported in patent US9139557B2, “Carboxamide compounds and their use as calpain inhibitors” (Abbott GmbH & Co. KG, priority 2006, dated 2015).

Key:
Assay type in all cases: biochemical
calpain-I = target: T1, calpain-I (Homo sapiens, UniProt P07384); assay: Calpain I enzyme inhibition in vitro (kinetic fluorescence assay)
T1 construct: calpain-I—isolated from human erythrocytes; purchased Calbiochem 208713; host or cells: human erythrocytes (tissue isolate)
T1 sequence (P07384 2-714 limits assumed): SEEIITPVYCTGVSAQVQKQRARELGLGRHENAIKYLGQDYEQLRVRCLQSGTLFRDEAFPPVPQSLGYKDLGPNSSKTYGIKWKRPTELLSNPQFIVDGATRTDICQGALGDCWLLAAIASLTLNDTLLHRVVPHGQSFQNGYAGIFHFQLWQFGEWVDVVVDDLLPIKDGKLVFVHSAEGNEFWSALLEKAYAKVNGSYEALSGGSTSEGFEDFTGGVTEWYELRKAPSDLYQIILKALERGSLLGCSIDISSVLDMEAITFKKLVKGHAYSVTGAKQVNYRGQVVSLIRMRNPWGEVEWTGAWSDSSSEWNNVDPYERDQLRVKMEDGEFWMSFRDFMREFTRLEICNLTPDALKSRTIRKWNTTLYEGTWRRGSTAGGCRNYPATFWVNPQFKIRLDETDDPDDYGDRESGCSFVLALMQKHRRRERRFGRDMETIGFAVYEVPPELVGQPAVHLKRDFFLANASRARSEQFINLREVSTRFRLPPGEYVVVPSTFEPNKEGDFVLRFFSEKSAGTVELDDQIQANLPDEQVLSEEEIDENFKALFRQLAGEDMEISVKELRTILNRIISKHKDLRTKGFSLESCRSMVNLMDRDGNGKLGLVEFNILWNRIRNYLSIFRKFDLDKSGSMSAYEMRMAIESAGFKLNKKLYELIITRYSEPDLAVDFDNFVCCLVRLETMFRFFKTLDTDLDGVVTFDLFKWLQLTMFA
T1 sequence (P04632 1-268 partner): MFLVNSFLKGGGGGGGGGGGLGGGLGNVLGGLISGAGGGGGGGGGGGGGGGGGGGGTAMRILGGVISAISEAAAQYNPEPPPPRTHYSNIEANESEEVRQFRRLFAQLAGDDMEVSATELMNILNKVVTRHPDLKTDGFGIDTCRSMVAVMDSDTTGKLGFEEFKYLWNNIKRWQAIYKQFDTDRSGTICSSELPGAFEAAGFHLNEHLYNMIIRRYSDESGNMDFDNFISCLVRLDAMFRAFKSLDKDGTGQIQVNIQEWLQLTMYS
Procedure: Testing for blockade of the corresponding enzymic activities was carried out by means of kinetic fluorescence assays (excitation 390 nm, emission 460 nm).
Apparent Ki values were calculated from the experimentally determined IC50 values by the Cheng-Prussoff relation assuming a reversible competitive enzyme inhibition. The Km values of the substrates used under the assay conditions indicated above were: 90 μM (Z-Phe-Arg-AMC, cathepsin B), 10 μM (Z-Gly-Pro-Arg-AMC, cathepsin K), 2 μM (Z-Phe-Arg-AMC, cathepsin L), and 30 μM (Z-Val-Val-Arg-AMC, cathepsin S).
The indicated Ki values are averages of the inhibition constants calculated on the basis of 2 to 4 independent dose-effect plots.
• 1. Calpain I: • 20 nM calpain-I—isolated from human erythrocytes (Calbiochem #208713), 100 μM Suc-Leu-Tyr-AMC (Bachem #1-1355) as substrate in buffer with 62 mM imidazole, 0.3 mM CaCl2, 0.10% CHAPS, 0.05% BSA, 1 mM DTT at pH 7.3 and room temperature. • 2. Cathepsin B: • 0.25 nM cathepsin B—isolated from human liver (Calbiochem #219362), 100 μM Z-Phe-Arg-AMC (Bachem #1-1160) as substrate 50 mM MES, 2 mM EDTA, 0.05% Brij 35, 2.5 mM L-cysteine, pH 6.0, room temperature. • 3. […]

cathepsin S = target: T2, cathepsin S (Homo sapiens, UniProt P25774); assay: Cathepsin S enzyme inhibition in vitro (kinetic fluorescence assay); conditions: Ki(cathepsin S)/Ki(calpain) ratio
T2 construct: purchased Calbiochem 219343; host or cells: E. coli
In short: (§1)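 Kinetic fluorescence (ex 390/em 460 nm), room temperature: calpain-I (human erythrocyte, 20 nM) with 100 µM Suc-Leu-Tyr-AMC, imidazole/CaCl2 pH 7.3; cathepsin B (liver, 0.25 nM), 100 µM Z-Phe-Arg-AMC; L (liver, 1 nM), 2 µM Z-Phe-Arg-AMC; S (recombinant, 0.5 nM), 20 µM Z-Val-Val-Arg-AMC; cathepsins in MES/EDTA/cysteine pH 6.0. Apparent Ki via Cheng-Prusoff, 2–4 curves averaged.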

cathepsin B = target: T3, cathepsin B (Homo sapiens, UniProt P07858); assay: Cathepsin B enzyme inhibition in vitro (kinetic fluorescence assay); conditions: Ki(cathepsin B)/Ki(calpain) ratio
T3 construct: cathepsin B—isolated from human liver; purchased Calbiochem 219362; host or cells: human liver (tissue isolate)
In short: as §1

cathepsin K = target: T4, cathepsin K (Homo sapiens, UniProt P43235); assay: Cathepsin K enzyme inhibition in vitro (kinetic fluorescence assay); conditions: Ki(cathepsin K)/Ki(calpain) ratio
T4 construct: purchased Calbiochem 342001; host or cells: E. coli
T4 sequence (P43235 115-329): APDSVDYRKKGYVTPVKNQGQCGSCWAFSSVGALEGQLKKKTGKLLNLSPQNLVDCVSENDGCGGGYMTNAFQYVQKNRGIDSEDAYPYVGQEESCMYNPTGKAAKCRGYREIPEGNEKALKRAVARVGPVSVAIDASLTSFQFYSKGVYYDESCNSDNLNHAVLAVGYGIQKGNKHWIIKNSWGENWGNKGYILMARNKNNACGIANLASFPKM

cathepsin L = target: T5, cathepsin L (Homo sapiens, UniProt P07711); assay: Cathepsin L enzyme inhibition in vitro (kinetic fluorescence assay); conditions: Ki(cathepsin L)/Ki(calpain) ratio
T5 construct: cathepsin L—isolated from human liver; purchased Calbiochem 219402; host or cells: human liver (tissue isolate)
In short: as §1

T2 sequence (P25774 115-331): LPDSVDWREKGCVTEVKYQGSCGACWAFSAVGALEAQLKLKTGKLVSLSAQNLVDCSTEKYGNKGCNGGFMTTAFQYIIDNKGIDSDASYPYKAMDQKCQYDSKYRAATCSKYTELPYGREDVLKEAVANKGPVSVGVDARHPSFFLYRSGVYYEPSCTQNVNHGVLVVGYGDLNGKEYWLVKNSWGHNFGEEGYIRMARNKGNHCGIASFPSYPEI
T5 sequence (P07711 114-333): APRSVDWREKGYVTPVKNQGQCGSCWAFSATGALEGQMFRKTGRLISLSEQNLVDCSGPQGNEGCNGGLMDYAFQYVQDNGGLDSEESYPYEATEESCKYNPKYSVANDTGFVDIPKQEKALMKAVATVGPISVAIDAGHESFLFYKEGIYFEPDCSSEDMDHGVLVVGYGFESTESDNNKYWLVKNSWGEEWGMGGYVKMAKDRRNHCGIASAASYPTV

Molecule	Ki (calpain-I) [nM]	Sel cat. S (cathepsin S)	Sel cat. B (cathepsin B)	Sel cat. K (cathepsin K)	Sel cat. L (cathepsin L)
Cl.NC(=O)C(=O)C(Cc1ccccc1)NC(=O)c1cccnc1-n1cnc(-c2ccc(CN3CCOCC3)cc2)c1 (stereo not shown) [Example 26, N-(3-Amino-1-benzyl-2,3-dioxopropyl)-2-{4-[4-(morpholin-4-ylmethyl)phenyl]-1H-imidazol-1-yl}nicotinamide hydrochloride]	< 40	++ (++ means a Ki(cathepsin S)/Ki(calpain) ratio of ≧100)			
NC(=O)C(=O)C(Cc1ccccc1)NC(=O)c1cccnc1-n1ccc(-c2cccc(OC(F)(F)F)c2)n1 (stereo not shown) [Example 168, N-[3-Amino-2,3-dioxo-1-(phenylmethyl)propyl]-2-(3-{3-[(trifluoromethyl)oxy]phenyl}-1H-pyrazol-1-yl)pyridine-3-carboxamide]		++ (++ means a Ki(cathepsin S)/Ki(calpain) ratio of ≧100)	+ (+ means 10≦Ki(cathepsin B)/Ki(calpain)<30)	+ (+ means 10≦Ki(cathepsin K)/Ki(calpain)<30)	++ (++ means a Ki(cathepsin L)/Ki(calpain) ratio of ≧50)
NC(=O)C(=O)C(Cc1ccccc1)NC(=O)c1cccnc1-n1cc2c(n1)-c1ccccc1SC2 (stereo not shown) [Example 173, N-[3-Amino-2,3-dioxo-1-(phenylmethyl)propyl]-2-thiochromeno[4,3-c]pyrazol-2(4H)-ylpyridine-3-carboxamide]		++ (++ means a Ki(cathepsin S)/Ki(calpain) ratio of ≧100)	+ (+ means 10≦Ki(cathepsin B)/Ki(calpain)<30)	+ (+ means 10≦Ki(cathepsin K)/Ki(calpain)<30)	++ (++ means a Ki(cathepsin L)/Ki(calpain) ratio of ≧50)
NC(=O)C(=O)C(Cc1ccccc1)NC(=O)c1cccnc1-n1cc2c(n1)-c1ccccc1S(=O)(=O)C2 (stereo not shown) [Example 174, N-[3-Amino-2,3-dioxo-1-(phenylmethyl)propyl]-2-(5,5-dioxidothiochromeno[4,3-c]pyrazol-2(4H)-yl)pyridine-3-carboxamide]		++ (++ means a Ki(cathepsin S)/Ki(calpain) ratio of ≧100)	+ (+ means 10≦Ki(cathepsin B)/Ki(calpain)<30)	+ (+ means 10≦Ki(cathepsin K)/Ki(calpain)<30)	++ (++ means a Ki(cathepsin L)/Ki(calpain) ratio of ≧50)
NC(=O)C(=O)C(Cc1ccccc1)NC(=O)c1cccnc1-n1cc2c(n1)-c1cccc(Cl)c1OC2 (stereo not shown) [Example 175, N-[3-Amino-2,3-dioxo-1-(phenylmethyl)propyl]-2-(6-chlorochromeno[4,3-c]pyrazol-2(4H)-yl)pyridine-3-carboxamide]		++ (++ means a Ki(cathepsin S)/Ki(calpain) ratio of ≧100)	++ (++ means a Ki(cathepsin B)/Ki(calpain) ratio of ≧30)	++ (++ means a Ki(cathepsin K)/Ki(calpain) ratio of ≧30)	++ (++ means a Ki(cathepsin L)/Ki(calpain) ratio of ≧50)
COc1ccc2c(c1)-c1nn(-c3ncccc3C(=O)NC(Cc3ccccc3)C(=O)C(N)=O)cc1CO2 (stereo not shown) [Example 183, N-[3-Amino-2,3-dioxo-1-(phenylmethyl)propyl]-2-[8-(methyloxy)chromeno[4,3-c]pyrazol-2(4H)-yl]pyridine-3-carboxamide]		++ (++ means a Ki(cathepsin S)/Ki(calpain) ratio of ≧100)	+ (+ means 10≦Ki(cathepsin B)/Ki(calpain)<30)	+ (+ means 10≦Ki(cathepsin K)/Ki(calpain)<30)	++ (++ means a Ki(cathepsin L)/Ki(calpain) ratio of ≧50)
NC(=O)C(=O)C(Cc1ccccc1)NC(=O)c1cccnc1-n1cc(Cl)c(-c2ccc(F)cc2)n1 (stereo not shown) [Example 184, N-[3-Amino-2,3-dioxo-1-(phenylmethyl)propyl]-2-[4-chloro-3-(4-fluorophenyl)-1H-pyrazol-1-yl]pyridine-3-carboxamide]		++ (++ means a Ki(cathepsin S)/Ki(calpain) ratio of ≧100)	+ (+ means 10≦Ki(cathepsin B)/Ki(calpain)<30)	+ (+ means 10≦Ki(cathepsin K)/Ki(calpain)<30)	++ (++ means a Ki(cathepsin L)/Ki(calpain) ratio of ≧50)
NC(=O)C(=O)C(Cc1ccccc1)NC(=O)c1cccnc1-n1ccc(C23CC4CC(CC(C4)C2)C3)n1 (stereo not shown) [Example 193, N-[3-Amino-2,3-dioxo-1-(phenylmethyl)propyl]-2-(3-tricyclo[3.3.1.1^3,7]dec-1-yl-1H-pyrazol-1-yl)pyridine-3-carboxamide]		++ (++ means a Ki(cathepsin S)/Ki(calpain) ratio of ≧100)	++ (++ means a Ki(cathepsin B)/Ki(calpain) ratio of ≧30)	++ (++ means a Ki(cathepsin K)/Ki(calpain) ratio of ≧30)	++ (++ means a Ki(cathepsin L)/Ki(calpain) ratio of ≧50)
N-[3-Amino-2,3-dioxo-1-(phenylmethyl)propyl]-2-[3-(3,5-dichlorophenyl)-1H-pyrazol-1-yl]pyridine-3-carboxamide [Example 89]		++ (++ means a Ki(cathepsin S)/Ki(calpain) ratio of ≧100)	+ (+ means 10≦Ki(cathepsin B)/Ki(calpain)<30)	+ (+ means 10≦Ki(cathepsin K)/Ki(calpain)<30)	++ (++ means a Ki(cathepsin L)/Ki(calpain) ratio of ≧50)
